Reference: ChEMBL document CHEMBL5154927, “Discovery of Novel Bicyclic Phenylselenyl-Containing Hybrids: An Orally Bioavailable, Potential, and Multiacting Class of Estrogen Receptor Modulators against Endocrine-Resistant Breast Cancer” (J Med Chem, 2022)
Activity calls are given as the source filed them. The calls are words filed in the database; no cut-off is given here.

Legend:
[1] = Antiproliferative activity against human MCF-10A cells assessed as reduction in cell viability measured after 72 hrs by Cell Counting Kit-8 assay; format: toxicity, cell-based
MCF7 [2] = experiment: cells; conditions: Homo sapiens, MCF7, 72 h
Description: Antiproliferative activity against human MCF7 cells assessed as reduction in cell viability measured after 72 hrs by Cell Counting Kit-8 assay

[3] = Selectivity index, ratio of IC50 for human MCF-10A cells to IC50 for human MCF-7 cells; format: toxicity; conditions: MCF-10A cells and MCF-7 cells, read-out: Ratio IC50
MDA-MB-231 = experiment: cells; conditions: Homo sapiens, MDA-MB-231, 72 h
Description: Antiproliferative activity against human MDA-MB-231 cells assessed as reduction in cell viability measured after 72 hrs by Cell Counting Kit-8 assay

MCF7 [4] = experiment: Antitumor activity against human MCF7 cells xenografted in BALB/C mouse assessed as decrease in cell proliferation at 20 mg/kg, po by Ki67 staining based immunohistochemical analysis; format: functional, organism-based
MCF7 [5] = experiment: Antitumor activity against human MCF7 cells xenografted in BALB/C mouse assessed as increase in tumor necrosis area at 20 mg/kg, po […]; format: functional, organism-based
[6] = Antiproliferative activity against tamoxifen-resistant human LCC2 cells assessed as reduction in cell viability measured after 72 hrs by Cell Counting Kit-8 assay; format: functional, cell-based; conditions: LCC2, 72 h
MCF7 [7] = experiment: Induction of apoptosis in human MCF7 cells at 20 uM incubated for 48 hrs by annexin V-FITC staining based flow cytometry; format: functional, cell-based
Homo sapiens = species: Homo sapiens; experiment: Selectivity ratio of relative binding affinity for human ERalpha to relative binding affinity for human ERbeta
[8] = molecular target: T1, Hexokinase-1 (Homo sapiens) (UniProt P19367); experiment: Binding affinity to hexokinase-1 in human MCF7 cell lysate assessed as HK-1 pull down by western blotting based Co-immunoprecipitation assay; format: subcellular; conditions: filed as antagonist
T1 sequence (whole entry): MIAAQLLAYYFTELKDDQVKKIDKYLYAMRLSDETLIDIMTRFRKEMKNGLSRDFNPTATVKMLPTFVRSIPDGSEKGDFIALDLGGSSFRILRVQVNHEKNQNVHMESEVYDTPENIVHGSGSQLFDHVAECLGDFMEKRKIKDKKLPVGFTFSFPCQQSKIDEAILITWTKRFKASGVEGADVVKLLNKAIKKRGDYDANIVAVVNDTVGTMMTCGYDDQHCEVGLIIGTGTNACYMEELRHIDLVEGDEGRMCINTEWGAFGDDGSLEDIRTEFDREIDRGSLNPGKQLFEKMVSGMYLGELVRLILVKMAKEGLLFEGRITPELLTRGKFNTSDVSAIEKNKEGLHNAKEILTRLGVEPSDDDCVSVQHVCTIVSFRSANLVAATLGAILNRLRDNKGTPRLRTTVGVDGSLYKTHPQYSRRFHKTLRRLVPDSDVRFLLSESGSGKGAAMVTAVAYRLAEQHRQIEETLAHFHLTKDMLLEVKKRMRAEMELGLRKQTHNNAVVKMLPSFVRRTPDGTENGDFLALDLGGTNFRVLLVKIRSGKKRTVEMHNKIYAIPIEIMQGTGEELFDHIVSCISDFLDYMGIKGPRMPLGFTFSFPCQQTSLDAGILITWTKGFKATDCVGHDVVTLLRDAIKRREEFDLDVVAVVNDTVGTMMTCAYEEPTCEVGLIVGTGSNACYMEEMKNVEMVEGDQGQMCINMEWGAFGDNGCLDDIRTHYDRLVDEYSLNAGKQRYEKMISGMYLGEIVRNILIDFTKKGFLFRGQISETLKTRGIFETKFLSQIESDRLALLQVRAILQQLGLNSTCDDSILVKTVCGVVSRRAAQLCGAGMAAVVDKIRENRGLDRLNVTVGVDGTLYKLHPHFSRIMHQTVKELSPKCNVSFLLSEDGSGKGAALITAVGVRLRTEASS

[9] = molecular target: Estrogen receptor beta (Homo sapiens) (UniProt Q92731); experiment: Relative binding affinity to human ERbeta measured after 2 hrs by competitive fluorometric binding assay relative to estradiol
Sequence of Estrogen receptor beta (Homo sapiens) (Q92731 whole entry): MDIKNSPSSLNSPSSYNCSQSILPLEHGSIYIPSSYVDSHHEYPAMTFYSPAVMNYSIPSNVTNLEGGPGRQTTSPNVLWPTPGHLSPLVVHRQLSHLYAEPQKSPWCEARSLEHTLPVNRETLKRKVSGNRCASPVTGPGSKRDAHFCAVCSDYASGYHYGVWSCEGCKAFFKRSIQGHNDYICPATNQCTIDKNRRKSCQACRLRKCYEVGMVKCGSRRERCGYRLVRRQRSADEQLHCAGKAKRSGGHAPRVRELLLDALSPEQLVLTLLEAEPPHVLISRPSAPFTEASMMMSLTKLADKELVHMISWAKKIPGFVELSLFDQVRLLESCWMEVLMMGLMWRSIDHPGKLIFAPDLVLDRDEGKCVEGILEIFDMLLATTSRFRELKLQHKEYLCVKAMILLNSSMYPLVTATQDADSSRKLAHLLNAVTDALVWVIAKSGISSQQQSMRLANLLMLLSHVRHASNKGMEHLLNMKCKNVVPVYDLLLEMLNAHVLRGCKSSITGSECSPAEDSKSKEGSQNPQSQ

`O=S(=O)(Oc1ccccc1)C1CC2OC1C(c1ccc(O)cc1)=C2c1ccc([Se]c2ccccc2)cc1` (centres undefined) gave an IC50 at 72 h [1] of over 60 µM, an IC50 (MCF7 [2]) of 0.16 µM and a selectivity ratio [3] of over 375. The IC50 (MDA-MB-231) was over 60 µM.
In the case of `CC/C(=C(\c1ccccc1)c1ccc(OCCN(C)C)cc1)c1ccccc1`, the Activity (MCF7 [4]) is reported as “Active” and the Activity (MCF7 [5]) is reported as “Active”.
`O=S(=O)(Oc1ccc([Se]c2ccccc2)cc1)C1CC2OC1C(c1ccc(O)cc1)=C2c1ccc(O)cc1` (centres undefined) gave an IC50 at 72 h [1] of over 60 µM, an IC50 (MCF7 [2]) of 0.8 µM and a selectivity ratio [3] of over 75. It also gave an IC50 (MDA-MB-231) of 31.6 µM and an IC50 [6] of 20.5 µM.
`O=S(=O)(Oc1cccc(Br)c1)C1CC2OC1C(c1ccc([Se]c3ccccc3)cc1)=C2c1ccc(O)cc1` (centres undefined) showed an IC50 at 72 h [1] of 17.3 µM, an IC50 (MCF7 [2]) of 1.36 µM and a selectivity ratio [3] of 12.7. The IC50 (MDA-MB-231) was 19.2 µM and the IC50 [6] was over 31 µM.
For `O=S(=O)(Oc1ccc(Cl)cc1)C1CC2OC1C(c1ccc([Se]c3ccccc3)cc1)=C2c1ccc(O)cc1` (centres undefined), the IC50 at 72 h [1] was 26.1 µM, the IC50 (MCF7 [2]) was 0.14 µM and the selectivity ratio [3] was 186. The IC50 (MDA-MB-231) was 11 µM and the IC50 [6] was 6.88 µM.
`O=S(=O)(Oc1ccc(Cl)cc1)C1CC2OC1C(c1ccc(O)cc1)=C2c1ccc([Se]c2ccccc2)cc1` (centres undefined) gave an IC50 at 72 h [1] of 32 µM, an IC50 (MCF7 [2]) of 0.37 µM and a selectivity ratio [3] of 86.4. It also gave an IC50 (MDA-MB-231) of 11 µM and an IC50 [6] of 6.64 µM.
With `O=S(=O)(Oc1ccccc1)C1CC2OC1C(c1ccc(O)cc1)=C2c1ccc(O)cc1` (centres undefined) the Activity (MCF7 [7]) was “Active”, the IC50 at 72 h [1] was over 60 µM and the IC50 (MCF7 [2]) was 14.6 µM. It also gave a selectivity ratio [3] of over 4.11, an IC50 (MDA-MB-231) of 32.3 µM and an IC50 [6] of over 31 µM.
`O=S(=O)(Oc1cccc(C(F)(F)F)c1)C1CC2OC1C(c1ccc([Se]c3ccccc3)cc1)=C2c1ccc(O)cc1` (centres undefined) gave an IC50 at 72 h [1] of 41 µM, an IC50 (MCF7 [2]) of 0.54 µM and a selectivity ratio [3] of 75.9. The IC50 (MDA-MB-231) was 16.8 µM and the IC50 [6] was 8.76 µM.
In the case of `CC/C(=C(\c1ccc(O)cc1)c1ccc(OCCN(C)C)cc1)c1ccccc1` [AFIMOXIFENE], the IC50 (MDA-MB-231) is reported as 18.4 µM and the IC50 [6] is reported as 22.2 µM.
In the case of `O=S(=O)(Oc1cccc([Se]c2ccccc2)c1)C1CC2OC1C(c1ccc(O)cc1)=C2c1ccc(O)cc1` (centres undefined), the IC50 at 72 h [1] is reported as 50.3 µM, the IC50 (MCF7 [2]) is reported as 1.71 µM and the selectivity ratio [3] is reported as 29.4. It also gave an IC50 (MDA-MB-231) of 25.6 µM and an IC50 [6] of over 31 µM.
`Cc1ccc(OS(=O)(=O)C2CC3OC2C(c2ccc([Se]c4ccccc4)cc2)=C3c2ccc(O)cc2)cc1` (centres undefined) gave an IC50 at 72 h [1] of 18.5 µM, an IC50 (MCF7 [2]) of 0.41 µM and a selectivity ratio [3] of 45.1. The IC50 (MDA-MB-231) was 8.49 µM and the IC50 [6] was 6.82 µM.
Compound `COc1ccc(OS(=O)(=O)C2CC3OC2C(c2ccc([Se]c4ccccc4)cc2)=C3c2ccc(O)cc2)cc1` (centres undefined) has an IC50 at 72 h [1] of 29.1 µM, an IC50 (MCF7 [2]) of 0.21 µM and a selectivity ratio [3] of 138. It also gave an IC50 (MDA-MB-231) of 9.71 µM and an IC50 [6] of 5.92 µM.
`O=S(=O)(Oc1cccc2ccccc12)C1CC2OC1C(c1ccc(O)cc1)=C2c1ccc([Se]c2ccccc2)cc1` (centres undefined) gave an IC50 at 72 h [1] of over 60 µM, an IC50 (MCF7 [2]) of 1.13 µM and a selectivity ratio [3] of over 53.1. For the same compound, the IC50 (MDA-MB-231) was 45.5 µM.
`O=S(=O)(Oc1ccc(C(F)(F)F)cc1)C1CC2OC1C(c1ccc(O)cc1)=C2c1ccc([Se]c2ccccc2)cc1` (centres undefined) gave an IC50 at 72 h [1] of 14.1 µM, an IC50 (MCF7 [2]) of 0.15 µM and a selectivity ratio [3] of 94.3. The IC50 (MDA-MB-231) was 22 µM and the IC50 [6] was over 31 µM.
`Cc1ccc(OS(=O)(=O)C2CC3OC2C(c2ccc(O)cc2)=C3c2ccc([Se]c3ccccc3)cc2)cc1` (centres undefined) gave an IC50 at 72 h [1] of 18.3 µM, an IC50 (MCF7 [2]) of 3.98 µM and a selectivity ratio [3] of 4.6. For the same compound, the IC50 (MDA-MB-231) was 8.05 µM and the IC50 [6] was 6.08 µM.
Work on `O=S(=O)(Oc1ccc(O)cc1)C1CC2OC1C(c1ccc(O)cc1)=C2c1ccc([Se]c2ccccc2)cc1` (centres undefined) yielded an IC50 at 72 h [1] of 16.7 µM, an IC50 (MCF7 [2]) of 1.96 µM and a selectivity ratio [3] of 8.54. For the same compound, the IC50 (MDA-MB-231) was 12.2 µM and the IC50 [6] was over 31 µM.
`Cc1cccc(OS(=O)(=O)C2CC3OC2C(c2ccc([Se]c4ccccc4)cc2)=C3c2ccc(O)cc2)c1` (centres undefined) showed an IC50 at 72 h [1] of 30.6 µM, an IC50 (MCF7 [2]) of 0.12 µM and a selectivity ratio [3] of 255. It also gave an IC50 (MDA-MB-231) of 12.6 µM and an IC50 [6] of 8.42 µM.
For `O=S(=O)(Oc1cccc(Cl)c1)C1CC2OC1C(c1ccc([Se]c3ccccc3)cc1)=C2c1ccc(O)cc1` (centres undefined), the IC50 at 72 h [1] was 17.6 µM, the IC50 (MCF7 [2]) was 0.18 µM and the selectivity ratio [3] was 97.8. For the same compound, the IC50 (MDA-MB-231) was 41.9 µM and the IC50 [6] was over 31 µM.
With `O=C(CCC[C@@H]1SC[C@@H]2NC(=O)N[C@@H]21)Nc1cccc2c(OS(=O)(=O)C3CC4OC3C(c3ccc(O)cc3)=C4c3ccc(O)cc3)cccc12` (some centres undefined) the Ratio (Homo sapiens) was 3.4, the Activity [8] was “Active” and the RBA [9] was 0.1%.
Work on `O=S(=O)(Oc1ccc(C(F)(F)F)cc1)C1CC2OC1C(c1ccc([Se]c3ccccc3)cc1)=C2c1ccc(O)cc1` (centres undefined) yielded an IC50 at 72 h [1] of 18.5 µM, an IC50 (MCF7 [2]) of 0.45 µM and a selectivity ratio [3] of 41.2. It also gave an IC50 (MDA-MB-231) of 27.5 µM.
`COc1ccc(OS(=O)(=O)C2CC3OC2C(c2ccc(O)cc2)=C3c2ccc([Se]c3ccccc3)cc2)cc1` (centres undefined) showed an IC50 at 72 h [1] of over 60 µM, an IC50 (MCF7 [2]) of 7.46 µM and a selectivity ratio [3] of over 8.04. It also gave an IC50 (MDA-MB-231) of over 60 µM.
In the case of `O=S(=O)(Oc1cccc(O)c1)C1CC2OC1C(c1ccc(O)cc1)=C2c1ccc([Se]c2ccccc2)cc1` (centres undefined), the IC50 at 72 h [1] is reported as 7.41 µM, the IC50 (MCF7 [2]) is reported as 0.07 µM and the selectivity ratio [3] is reported as 106. For the same compound, the IC50 (MDA-MB-231) was 7.13 µM and the IC50 [6] was 2.88 µM.
With `O=S(=O)(Oc1ccc(Br)cc1)C1CC2OC1C(c1ccc(O)cc1)=C2c1ccc([Se]c2ccccc2)cc1` (centres undefined) the IC50 at 72 h [1] was 43.2 µM, the IC50 (MCF7 [2]) was 0.55 µM and the selectivity ratio [3] was 75.6. For the same compound, the IC50 (MDA-MB-231) was 17.4 µM and the IC50 [6] was over 31 µM.
`O=S(=O)(Oc1ccc(Br)cc1)C1CC2OC1C(c1ccc([Se]c3ccccc3)cc1)=C2c1ccc(O)cc1` (centres undefined) gave an IC50 at 72 h [1] of 28.2 µM, an IC50 (MCF7 [2]) of 0.31 µM and a selectivity ratio [3] of 90.8. For the same compound, the IC50 (MDA-MB-231) was 18.3 µM and the IC50 [6] was 25 µM.
With `COc1cccc(OS(=O)(=O)C2CC3OC2C(c2ccc(O)cc2)=C3c2ccc([Se]c3ccccc3)cc2)c1` (centres undefined) the IC50 at 72 h [1] was 17.9 µM, the IC50 (MCF7 [2]) was 0.66 µM and the selectivity ratio [3] was 27.1. It also gave an IC50 (MDA-MB-231) of 10.5 µM and an IC50 [6] of 4.8 µM.
